From PubChem BioAssay (NCI) come the findings set out here.

Assay in all cases: NCI-60 cell line screen, 48 h
Test [1] has as its system SK-MEL-28 melanoma.
The subject of test [2] is SNB-19 CNS.
Test [3] has as its system SF-295 CNS.
The subject of test [4] is OVCAR-5 ovarian.
In test [5] the test system is HCC-2998 colon.
The test system of test [6] is OVCAR-3 ovarian.
The subject of test [7] is A498 renal.
Test [8] concerns PC-3 prostate.
Test [9] relates to MDA-MB-435.
The test system of test [10] is NCI/ADR-RES ovarian.

Structures are written as SMILES.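 Following 48 hours of exposure in 96-well plates, responses at five concentrations were used to interpolate endpoints linearly. Abbreviation: GI50, concentration required for 50% inhibition of growth. TGI: concentration producing complete growth inhibition.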

Take `CC1=C2C(c3ccccc3)(c3ccccc3)C3C=CC2(C=N3)N(C(=O)NC2CCCCC2)C1=O` (centres undefined): the TGI came out at 30.6 µM in test [1]; 32.9 µM in test [2]; 31.2 µM in test [3]; 31.5 µM in test [4]; 32.4 µM in test [5]; 28.2 µM in test [6]. This compound also came in with a TGI in test [7] of 31.6 µM.
Consider `Cc1cc(C)nc(NS(=O)(=O)c2ccc(NC(=O)c3cccc4cc5ccccc5nc34)cc2)n1`, for which the TGI in test [1] was > 100 µM; in [2], 90.7 µM; in test [3] it was > 100 µM; in [4], > 100 µM; in test [6], 65.3 µM; in test [7] it was 50.5 µM.
On to `CC1OC(O)C(O)C(O)C1O` (centres undefined), for which the TGI in test [1], in test [2], in [3], in test [8], in test [9] and in test [10] was > 100 µM throughout. Also, the TGI in [4], in [6] and in [7] was > 100 µM each time.
`COc1cc(Br)c(CC2=NCCc3cc(OC)c(OC)cc32)cc1OC`: the TGI in [1] was > 100 µM; in test [2] it was > 100 µM; in test [3], > 100 µM; in [4], > 100 µM; in test [5], 43.4 µM; in [6] it was > 100 µM. Further, the TGI in [7] was determined as 76.3 µM.
Take `O=[N+]([O-])c1ccccc1C1N2CCCCC2[C@@H]2c3[nH]c4ccccc4c3CCN12` (some centres undefined): the TGI amounted to 26.6 µM in test [1]; 33.4 µM in test [2]; 29.8 µM in test [3]; 40 µM in test [4]; 63.3 µM in [6]; 25.2 µM in [7].
With `Cc1ccc(Nc2ccc(Nc3ccc(C)cc3)c3c2C(=O)c2c(O)ccc(O)c2C3=O)cc1`, the TGI in [1], in test [2], in [3], in test [4], in test [5] and in test [6] was > 100 µM in each case. In test [7], the TGI was > 100 µM.
In the case of `CC(=O)/C(C)=N/N/C(N)=N\S(=O)(=O)c1cc(C(=O)Nc2ccccc2)c(Cl)cc1SCc1ccccc1`, the GI50 in test [1] was > 100 µM; in test [2], > 100 µM; in test [3], 43.1 µM; in test [8] it was > 100 µM; in test [9] it was 34.4 µM; in test [10] it was > 100 µM. For the same compound, the GI50 in test [4] was > 100 µM; in [6], > 100 µM; in test [7], 55.9 µM. Also, the TGI in [1], in test [2], in test [3], in test [8], in [9] and in test [10] was > 100 µM each time. The TGI in [4], in test [6] and in [7] was > 100 µM throughout.
Regarding `C/C(=N\Nc1ccc([N+](=O)[O-])cc1)C(=O)N(C)Nc1ccccc1`, the TGI in test [2], in [3], in [5], in [6] and in test [7] was > 100 µM throughout.
As to `COc1cc(C2C(C(=O)Nc3ccccc3)=C(C)NC(C)=C2C(=O)Nc2ccccc2)ccc1O`, the TGI in test [1] is > 100 µM; in [2], > 100 µM; in test [3], > 100 µM; in test [4], > 100 µM; in test [5] it was > 100 µM; in test [6], 55.9 µM. For the same compound, in test [7], the TGI is > 100 µM.
Take `O=C1C2=C(c3ccccc31)C(c1ccccc1Cl)N1C(=O)CSC1=N2` (centres undefined): the TGI in test [1], in test [2], in test [3], in [4], in test [5] and in test [6] was > 100 µM in each case. In test [7], the TGI is > 100 µM.
As for `Cc1ccc(NC(=O)C(=O)Cc2nc3ccccc3o2)c(C)c1`, the TGI in test [1], in test [2], in test [3], in test [4], in [5] and in [6] was > 100 µM in each case.
As to `O=c1nc2cc(-c3ccccc3)[nH]c2nn1-c1c(Cl)cc(Cl)cc1Cl`, the TGI in test [1] is > 100 µM; in test [2], > 100 µM; in [3] it was 93.2 µM; in [4], > 100 µM; in test [5], 32 µM; in test [6] it was 54.2 µM. This compound returned a TGI in test [7] of 89.7 µM.
On to `C[Si](C)(C)/C=C/CN1C(=O)CCC1O` (centres undefined), for which the TGI in test [1], in test [2], in test [3], in [4], in test [5] and in [6] was > 100 µM in each case. Besides, the TGI in test [7] is > 100 µM.
In the case of `CC(=O)OC1CCC2(C)C(=CC(C3C=C4CC(OC(C)=O)CCC4(C)C4=C3C3CC5OC6(CCC(C)CO6)C(C)C5C3(C)CC4)C3=C2CCC2(C)C3CC3OC4(CCC(C)CO4)C(C)C32)C1` (centres undefined), the TGI in [1] came out at 31.5 µM; in [2], 30.4 µM; in [3], 26.5 µM; in [8] it was 25.6 µM; in test [9], 27.1 µM; in [10] it was 37.7 µM. The TGI in test [4] is 35.9 µM; in test [6], 28.6 µM; in [7], 30.8 µM.
For the compound `O=c1c([Se]c2coc3ccccc3c2=O)coc2ccccc12`, the TGI in test [1] worked out at 30.8 µM; in test [2], 27.4 µM; in test [3], 13.7 µM; in test [4], 30.3 µM; in test [5], 33.2 µM; in [6], 32 µM. The compound further registered a TGI in test [7] of 33.6 µM.
As for `C=C1C(C)C2C(Cc3ccccc3)NC(=O)C23C(OC(C)=O)/C=C/C(C)(O)CC(C)C/C=C/C3C1O` (centres undefined), the TGI in test [1] was > 97.7 µM; in test [2] it was 20.7 µM; in test [3], 33.2 µM; in test [8], > 100 µM; in test [10], > 100 µM; in test [4], > 100 µM. The TGI in test [5] is > 100 µM; in test [6], > 100 µM; in test [7], 1.15 µM. Moreover, in test [8], the GI50 was 15.8 µM.
Consider `O=Cc1coc2ccccc2c1=O`, for which the TGI came out at 70.4 µM in test [2]; 41.2 µM in [3]; 53.7 µM in test [8]; 47.9 µM in test [9]; 34.9 µM in test [10]; 56.2 µM in test [4]. For the same compound, the TGI in test [6] and in test [7] was > 100 µM each time.
With `COC(=O)C1=C(C(=O)OC)C2(C(=O)OC)OC1(OC)C(C1(C(=O)OC)C(C(=O)OC)=C1C(=O)OC)=C2C(=O)OC` (centres undefined), the TGI in test [1], in test [2], in test [3], in test [4], in [5] and in test [6] was > 100 µM in each case.
Turning to `CC[C@@H]1OC2(C)CC(S(=O)(=O)c3ccccc3)CC1O2` (some centres undefined), the TGI in test [1], in test [2], in test [3], in [4], in [5] and in test [6] was > 100 µM in each case.
As for `COc1ccc(O)c2c1C(=O)CCCC2=O`, the TGI in test [1], in test [2], in test [3], in test [4], in [5] and in test [6] was > 100 µM in each case. The TGI in [7] is > 100 µM.
`CCc1cccc(C)c1NC(=O)NS(=O)(=O)c1ccc(C)cc1`: the TGI in [1], in test [2], in [3], in [4], in test [5] and in test [6] was > 100 µM in each case. The TGI in test [7] was > 100 µM.
Turning to `COc1ccc(C(=O)C=C2NCCN2)cc1`, the TGI in test [1], in test [2], in test [3], in test [4], in test [5] and in test [6] was > 100 µM each time. The TGI in test [7] is > 100 µM.
Take `Fc1ccccc1C1CC(C(c2ccccc2)c2ccccc2)=Nc2ccccc2S1` (centres undefined): the TGI in test [1] was 25.1 µM; in test [2] it was 32.2 µM; in test [3], 26.5 µM; in [4], 33.6 µM; in [5], 17.6 µM; in test [6] it was 24.4 µM. In [7], the TGI turned out to be 20 µM.
For the compound `COc1ccc(C2S/C(=C\c3ccc(OC)cc3OC)C(=O)N2NC(=O)Cc2ccccc2)cc1` (centres undefined), the TGI in test [3], in [4] and in [7] was > 100 µM each time.
As for `CCOC(=O)C(C[Si](C)(C)C)P(=O)(OCC)OCC` (centres undefined), the TGI in [1], in [3], in test [4], in test [5] and in [6] was > 100 µM each time.
As for `CC(=O)Nc1ccc(-c2nnc(SCC(=O)Nc3ccc(C)cc3)o2)cc1`, the TGI is 31.4 µM in test [1], 35.5 µM in test [3], 39.8 µM in test [4] and 37.2 µM in test [6].
As for `COc1cccc(C2C(C(=O)Nc3cc(=O)n(C)c(=O)n3C)=C(C)NC(C)=C2C(=O)Nc2cc(=O)n(C)c(=O)n2C)c1O`, the TGI in [1], in [2], in test [3], in test [4], in test [5] and in test [6] was > 100 µM in each case. Moreover, the TGI in [7] was > 100 µM.
As for `Cc1nc(C(N)=S)sc1C(=O)/C=C/c1cccc(O)c1`, the TGI in test [1], in test [3], in [4], in test [5], in test [6] and in test [7] was > 100 µM each time.
With `COc1ccccc1/C=C\c1cc(OC)c(OC)c(OC)c1`, the TGI is > 100 µM in [1]; > 100 µM in test [2]; > 100 µM in [3]; 89.4 µM in test [4]; 55.6 µM in test [6]; 54.7 µM in test [7].
Turning to `O=c1cccccc1NCCCCNc1cccccc1=O`, the TGI in test [1], in [2], in test [3], in test [4], in test [5] and in test [6] was > 100 µM in each case. In test [7], the TGI was > 100 µM.
On to `CCOC(=O)C(C)(C)Oc1ccc2c(-c3ccc(Cl)cc3)cc(=O)oc2c1`, for which the TGI in [1], in test [2], in test [3], in test [5], in test [6] and in test [7] was > 100 µM each time.
For the compound `COc1cc2c(cc1C)n(O)c(C)c(C(=O)C/C(=N/NC(=O)C[N+](C)(C)C)C(=O)Nc1cccc(Cl)c1C)[n+]2=O`, the TGI in test [1], in test [2], in test [3], in test [4], in [5] and in test [6] was > 100 µM in each case. In test [7], the TGI is > 100 µM.
`CCOC(=O)C12CC1(C(=O)OCC)C1CCC2C1` (centres undefined): the TGI in [1], in test [2], in test [3], in test [4], in [5] and in [6] was > 100 µM each time. The TGI in test [7] is > 100 µM.
Turning to `CCC1(OC(C)=O)C(=O)OCc2c1cc1n(c2=O)Cc2cc3ccccc3nc2-1` (centres undefined), the TGI is > 100 µM in test [1]; > 100 µM in test [2]; > 100 µM in [3]; 28.9 µM in test [4]; > 100 µM in test [5]; > 100 µM in test [6]. Further, the TGI in [7] turned out to be 25.5 µM.
With `COc1ccc2c(c1)CC[C@@H]1C2CC[C@]2(C)C(=O)NC(=O)CC12` (some centres undefined), the TGI in test [2], in test [3], in test [4], in [5], in test [6] and in [7] was > 100 µM in each case.
